{"source": "PubChem BioAssay AID1249", "about": "(Columbia University Molecular Screening Center, 2008)", "note": "Activity calls are given as the source filed them. How the calls were made is not given here."}
{"assay": "modifiers of cytoskeleton assembly, confirmation, imaging, high-content imaging, retest and dose response (AID 1249);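 further: compound exposure lasted 24 h before fixation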;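 on inhibition: plate controls were untreated cells for no effect and reference compound treated cells for full effect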", "settings": "cell-based imaging, cytoskeleton assembly phenotype, high content; at 2 µM; stronger effect = higher value"}
{"smiles": "COc1cc(NC(=O)CN2C(=O)NC(C)(CC(C)C)C2=O)cc(OC)c1", "note": "(stereo unspecified)", "inhibition": "1.2% (inactive)"}
{"smiles": "Cc1ccc2nc(CCc3nc4ccc(C)cc4o3)oc2c1", "inhibition": "5.4% (inactive)"}
{"smiles": "Cc1cc(C(=O)NN)c2cc(Br)ccc2n1", "inhibition": "-2% (inactive)"}
{"smiles": "Nc1sccc1C(=O)c1ccc(Cl)cc1", "inhibition": "-15.5% (inactive)"}
{"smiles": "COC(=O)c1ccc(-n2nnnc2SCC(=O)N2CCCCC2)cc1", "inhibition": "3.1% (inactive)"}
{"smiles": "O=C(COc1ncnc2sccc12)Nc1ccc2c(c1)OCCO2", "inhibition": "1.1% (inactive)"}
{"smiles": "Cc1ccc(Cl)cc1NC1=C/C(=N\\S(=O)(=O)c2cccs2)c2ccccc2C1=O", "inhibition": "-8% (inactive)"}
{"smiles": "Cc1cc(C)cc(-n2nnnc2SCC(=O)Nc2nc(-c3ccc(Cl)cc3)cs2)c1", "inhibition": "-9.2% (inactive)"}
{"smiles": "CC(=O)N1CN2CN(C(C)=O)CC(C(=O)c3ccccc3)(C2)C1", "inhibition": "-10.6% (inactive)"}
{"smiles": "CC(=O)NC1CC2CCCC(C1)N2", "note": "(stereo unspecified)", "inhibition": "-18.6% (inactive)"}
{"smiles": "O=c1c2c3c(sc2nc2n1CCC2)CCC3", "inhibition": "-14.6% (inactive)"}
{"smiles": "CCc1nnc(NC(=O)C2c3ccccc3Oc3ccccc32)s1", "inhibition": "2.3% (inactive)"}
{"smiles": "CC(=O)Nc1ccc(NC2(C)C(=O)c3ccccc3C2=O)cc1", "inhibition": "0.7% (inactive)"}
{"smiles": "CNC(=O)c1ccccc1NC(=O)c1ccco1", "inhibition": "0.5% (inactive)"}
{"smiles": "CN(Cc1ccccc1)S(=O)(=O)c1ccc(NC(=S)NC(=O)C2CCCC2)cc1", "inhibition": "-1.4% (inactive)"}
{"smiles": "COc1ccc(C(=O)c2ccc(N(C)C)cc2)c2ccccc12", "inhibition": "-3.3% (inactive)"}
{"smiles": "C=CCn1c(SCc2c(C)noc2C)nc2ccccc2c1=O", "inhibition": "4.2% (inactive)"}
{"smiles": "COc1ccc(-c2cc(C(=O)Nc3cc(C)n(Cc4ccc(Cl)cc4)n3)no2)cc1OC", "inhibition": "6.8% (inactive)"}
{"smiles": "CCOC(=O)c1c(C)c(C(=O)O)n(C)c1C", "inhibition": "-14.7% (inactive)"}
{"smiles": "Cc1cccc(NC(=O)CC2SC(=O)N(c3ccccc3)C2=O)c1", "note": "(stereo unspecified)", "inhibition": "1.5% (inactive)"}
{"smiles": "CC1(C)OC(=O)C(=NNc2ccc(O)cc2)C(=O)O1", "inhibition": "-11.1% (inactive)"}
{"smiles": "CC1=C([N+](=O)[O-])C(c2ccccc2)C2=C(N1)c1ccccc1C2=O", "note": "(stereo unspecified)", "inhibition": "8.7% (inactive)"}
{"smiles": "CCOc1ccccc1/C=N/Nc1ccccc1[N+](=O)[O-]", "inhibition": "-0.7% (inactive)"}
{"smiles": "COC(=O)c1sccc1NC(=O)CCC1CCCC1", "inhibition": "-0.4% (inactive)"}
{"smiles": "COC(=O)CSc1nc2nc(C)c(Br)cc2[nH]1", "inhibition": "1.5% (inactive)"}
{"smiles": "Cc1ccc(C(=O)NCCCn2ccnc2)cn1", "inhibition": "1.3% (inactive)"}
{"smiles": "Cc1ccccc1Cn1nc(C)c(NC(=O)c2cc(-c3cccs3)on2)c1C", "inhibition": "3.8% (inactive)"}
{"smiles": "CN1CCCCc2c1[nH]c1ccccc1c2=O", "inhibition": "5.2% (inactive)"}
{"smiles": "CN=C(Nc1cc(C)nn1CCC#N)c1ccccc1F", "inhibition": "-24.5% (inactive)"}
{"smiles": "Cc1csc(NC(=O)CSc2nnc(-c3ccc(S(=O)(=O)N4CCCC4)cc3)o2)n1", "inhibition": "4.6% (inactive)"}
{"smiles": "O=C(O)c1ccccc1Nc1ccccc1C(=O)O", "inhibition": "0.6% (inactive)"}
{"smiles": "O=C(CN1CCSCC1)N1CCc2[nH]c3ccc(Br)cc3c2C1", "inhibition": "5.8% (inactive)"}
{"smiles": "Cn1nc(C(=O)OCC(=O)N2CCc3ccccc32)c2ccccc2c1=O", "inhibition": "4.3% (inactive)"}
{"smiles": "COc1ccc(C2=Nn3c(nnc3-c3ccccc3OC)SC2)cc1OC", "inhibition": "0.9% (inactive)"}
{"smiles": "COc1cc(CNCc2ccco2)ccc1OCc1ccccc1", "inhibition": "-7.5% (inactive)"}
{"smiles": "CCOC(=O)Cn1nnnc1CN(CCc1ccccc1)Cc1cc2cc(CC)ccc2[nH]c1=O", "inhibition": "1.3% (inactive)"}
{"smiles": "CC(C)(C)C(=O)/C(=C\\c1cccc([N+](=O)[O-])c1)n1cncn1", "inhibition": "0.1% (inactive)"}
{"smiles": "COc1ccc(-n2nnnc2S(=O)(=O)CC(=O)N2CCCCC2)cc1", "inhibition": "0.7% (inactive)"}
{"smiles": "CCOC(=O)c1cnn(-c2nc3c(C)cccc3s2)c1C", "inhibition": "-1.2% (inactive)"}
{"smiles": "Cc1cccc(NC(=O)Cn2nc(C(F)(F)F)cc2C2CC2)c1", "inhibition": "-14.3% (inactive)"}
{"smiles": "COc1ccc(NC(=O)N2CCn3c2nc2ccccc23)cc1", "inhibition": "5% (inactive)"}
{"smiles": "CCOc1ccc2[nH]c(=O)c(CN(Cc3ccccc3)C(=O)N3CCCC3)cc2c1", "inhibition": "12.4% (inactive)"}
{"smiles": "C#CC(=O)N(c1cccc(OC)c1)C(C(=O)NC1CCCC1)c1cccs1", "note": "(stereo unspecified)", "inhibition": "-5.8% (inactive)"}
{"smiles": "COc1ccc(-c2nnc(SCC(=O)N3CCCc4ccccc43)o2)cc1OC", "inhibition": "-16.4% (inactive)"}
{"smiles": "CCOC(=O)Cc1csc(NC(=O)COc2ccc(N(C)S(=O)(=O)c3ccc(C)cc3)cc2)n1", "inhibition": "0% (inactive)"}
{"smiles": "CCOc1ccc2nc(C)cc(Nc3ccc4c(c3)OCCO4)c2c1", "inhibition": "7.5% (inactive)"}
{"smiles": "CC(C)(C)SCCNC(=O)CN(c1ccc(F)cc1)S(C)(=O)=O", "inhibition": "-2.5% (inactive)"}
{"smiles": "CC(=O)c1cccc(S(=O)(=O)N2CCC(n3nnc4cc(F)ccc43)CC2)c1", "inhibition": "6.4% (inactive)"}
{"smiles": "CC1=C(C#N)C(Nc2cccc(C)n2)(C(F)(F)F)C(=O)N1", "note": "(stereo unspecified)", "inhibition": "7% (inactive)"}
{"smiles": "CCOc1ccc(N2C(=O)CSC2c2ccncc2)cc1", "note": "(stereo unspecified)", "inhibition": "4.4% (inactive)"}
{"smiles": "CCN1CCN(C(=O)CN(CCc2ccccc2)S(C)(=O)=O)CC1", "inhibition": "-9.3% (inactive)"}
{"smiles": "O=C(O)C1CCC(N2C(=O)C3CCCCC3C2=O)CC1", "note": "(stereo unspecified)", "inhibition": "-0.4% (inactive)"}
{"smiles": "Cc1cc(C(=O)CSc2nnc(-c3ccc(F)cc3)o2)c(C)n1CC1COc2ccccc2O1", "note": "(stereo unspecified)", "inhibition": "-0.5% (inactive)"}
{"smiles": "CCCOC(=O)CSC1=C(C#N)C(c2ccccc2OC)C(C#N)C(=O)N1", "note": "(stereo unspecified)", "inhibition": "-1.7% (inactive)"}
{"smiles": "CCOC(=O)c1ccc(NC(=O)CCNc2c(N3CCCC3)c(=O)c2=O)cc1", "inhibition": "1.6% (inactive)"}
{"smiles": "Cc1cccc(NC(=O)CN2NS(=O)(=O)c3ccccc3C2=O)c1", "inhibition": "-4.6% (inactive)"}
{"smiles": "COc1ccc2[nH]c(=O)c(CN(Cc3ccc4c(c3)OCO4)C(C)=O)cc2c1", "inhibition": "5.1% (inactive)"}
{"smiles": "COc1ccc(N2CCN(C(=O)CSc3nnc4c(C)cc5cc(C)ccc5n34)CC2)cc1", "inhibition": "3.6% (inactive)"}
{"smiles": "Cc1nc(S(=O)(=O)N(C)Cc2ccccc2)c(C#N)c(C)c1Cl", "inhibition": "-5.1% (inactive)"}
{"smiles": "CCC(=O)Nc1cccc(C(=O)/C=C/c2cc(Br)ccc2OC)c1", "inhibition": "0% (inactive)"}
{"smiles": "CC1CCCN(c2nc3ccsc3c(=O)s2)C1", "note": "(stereo unspecified)", "inhibition": "2.9% (inactive)"}
{"smiles": "CC(C(=O)Nc1ccc(Br)cc1C(=O)c1ccccc1)N1CCOCC1", "note": "(stereo unspecified)", "inhibition": "6% (inactive)"}
{"smiles": "CN(C)c1nc(N(C)C)nc(N(C#N)CCOc2ccccc2)n1", "inhibition": "-6.3% (inactive)"}
{"smiles": "O=C(/C(=C/c1ccc(Cl)cc1)c1nc2ccccc2[nH]1)c1cccs1", "inhibition": "-2.9% (inactive)"}
{"smiles": "Cn1c(SCc2nc(-c3ccc(Cl)cc3)no2)nnc1-c1cccs1", "inhibition": "16.1% (inactive)"}
{"smiles": "CCOC(=O)Cc1cc(-c2ccc(O)cc2)nc2ccc3ccccc3c12", "inhibition": "-11.7% (inactive)"}
{"smiles": "O=S(=O)(c1cccs1)N1CCN(CC(O)COc2cccc(Br)c2)CC1", "note": "(stereo unspecified)", "inhibition": "5.3% (inactive)"}
{"smiles": "CCOc1cc(/C=C2/C(=O)N(c3ccccc3)N=C2C)ccc1OC(=O)c1ccco1", "inhibition": "4.7% (inactive)"}
{"smiles": "CCCCC(=O)NC(=S)Nc1ccccc1C(=O)Nc1ccccc1", "inhibition": "3.2% (inactive)"}
{"smiles": "C/C(=N\\O)c1ccc2c3ccccc3n(C)c2c1", "inhibition": "-20.9% (inactive)"}
{"smiles": "O=C(Nc1ccccc1)c1nnsc1S(=O)(=O)c1ccc(Cl)cc1", "inhibition": "5.3% (inactive)"}
{"smiles": "CN1C(=O)C(C(=O)NC(C)(C)C)C2c3ccccc3OC13CCCCC23", "note": "(stereo unspecified)", "inhibition": "1.7% (inactive)"}
{"smiles": "Cc1ccc(N/N=C/c2ccc(N3CCOCC3)cc2)cc1C", "inhibition": "-7.8% (inactive)"}
{"smiles": "CCOc1ccccc1N1CCN(C(=O)c2cccc(-c3ccc(O)cc3)c2)CC1", "inhibition": "6.2% (inactive)"}
{"smiles": "CCCc1cc(=O)[nH]c(SCC(=O)Nc2nonc2N)n1", "inhibition": "2.7% (inactive)"}
{"smiles": "Cc1ccc(NC(=O)c2oc3c(c2C)C(=O)CC(C)(C)C3)cc1", "inhibition": "-7.9% (inactive)"}
{"smiles": "O=C(Nc1ccccc1)N1CCC(c2ccccc2)C1", "note": "(stereo unspecified)", "inhibition": "-9.2% (inactive)"}
{"smiles": "Cc1c(CCO)c(=O)n(-c2ccccc2)n1S(=O)(=O)c1ccc(Cl)cc1", "inhibition": "-11% (inactive)"}
{"smiles": "COc1ccc(S(=O)(=O)Nc2cc3c(C(C)=O)c(C)oc3c3ccccc23)cc1", "inhibition": "-5.1% (inactive)"}
{"smiles": "O=C(NCc1ccco1)c1cc(-c2ccc(Cl)cc2)on1", "inhibition": "10.5% (inactive)"}
{"smiles": "Cc1ccc(C(=O)c2cc([N+](=O)[O-])ccc2N2CCOCC2)c(C)c1", "inhibition": "3.2% (inactive)"}
{"smiles": "CC(=O)c1cccc(NS(=O)(=O)c2c(C)noc2C)c1", "inhibition": "-13.9% (inactive)"}
{"smiles": "CCN1CCC2(CC1)C(C#N)=C(N)Oc1c2sc2nc(C)cc(C)c12", "inhibition": "-0.7% (inactive)"}
{"smiles": "COc1ccc(CC(=O)OCc2cc3ccc(C)cc3[nH]c2=O)cc1", "inhibition": "5.4% (inactive)"}
{"smiles": "Cc1ccc(S(=O)(=O)NC(CC(=O)O)c2ccco2)cc1", "note": "(stereo unspecified)", "inhibition": "8.2% (inactive)"}
{"smiles": "COCCCNC(=S)NC1CC2CCCC(C1)N2Cc1ccco1", "note": "(stereo unspecified)", "inhibition": "4.7% (inactive)"}
{"smiles": "O=C(NCc1ccco1)C1CC(=O)N(c2ccc(F)cc2)C1", "note": "(stereo unspecified)", "inhibition": "2.5% (inactive)"}
{"smiles": "Cc1cc(N2CCC(C)CC2)nc(-n2nc(C)cc2C)n1", "inhibition": "4.7% (inactive)"}
{"smiles": "COc1ccc(S(=O)(=O)Nc2nc3n(n2)C(c2ccc(Cl)cc2)CC(=O)N3)cc1", "note": "(stereo unspecified)", "inhibition": "4.9% (inactive)"}
{"smiles": "O=C(NCc1ccccc1)NC1(C(=O)N2CCCC2)CCCCC1", "inhibition": "5.3% (inactive)"}
{"smiles": "CCN1/C(=C\\C=C\\C2=[N+](CC)c3ccccc3C2(C)C)C(C)(C)c2ccccc21", "inhibition": "-15.4% (inactive)"}
{"smiles": "COc1ccc(-c2cc(=O)[nH]c(NCc3ccccc3)n2)cc1", "inhibition": "-1.7% (inactive)"}
{"smiles": "Oc1ccc(N2CCN(c3ncnc4sc5c(c34)CCC5)CC2)cc1", "inhibition": "-5.1% (inactive)"}
{"smiles": "CCN1CCN(CC(=O)Nc2nc3ccc(OC)cc3s2)CC1", "inhibition": "-8.7% (inactive)"}
{"smiles": "Cc1n[nH]c(=O)nc1NCc1ccccc1", "inhibition": "4% (inactive)"}
{"smiles": "C=CCOC(=O)C1=C(C)OC(N)=C(C#N)C12C(=O)N(CN1CCOCC1)c1ccccc12", "note": "(stereo unspecified)", "inhibition": "-12.8% (inactive)"}
{"smiles": "Cc1ccc(CNC(=O)Cn2ccc3ccccc3c2=O)o1", "inhibition": "-10.7% (inactive)"}
{"smiles": "Cc1cccnc1Nc1nc(-c2ccccn2)cs1", "inhibition": "-5.7% (inactive)"}
{"smiles": "O=C1OCC(CO)(CO)N=C1NNc1ccccc1Cl", "inhibition": "19.6% (inactive)"}
{"assay": "modifiers of cytoskeleton assembly, confirmation, imaging, high-content imaging, retest and dose response (AID 1249);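 further: compound exposure lasted 24 h before fixation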;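 on inhibition: plate controls were untreated cells for no effect and reference compound treated cells for full effect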", "settings": "cell-based imaging, cytoskeleton assembly phenotype, high content; cell count; at 10 µM; stronger effect = lower value", "units": {"cell count": "%"}}
{"smiles": "COCCOC(=O)c1[nH]c2c(c1C)C(=O)CC(c1ccccc1)C2", "note": "(stereo unspecified)", "cell count": 56}
{"smiles": "COc1cc(C2C(C#N)=C(N)Oc3cc(N(C)C)ccc32)cc2c1OCO2", "note": "(stereo unspecified)", "cell count": 39.3}
